Columns and labels:
AmCYP03b (Seq ID 6) = test: Herbicide degradation in transgenic yeast cells expressing cytochrome P450 AmCYP03b; type: in vitro ADME, Alopecurus myosuroides; settings: transgenic yeast cells (S. cerevisiae BJ5459) expressing AmCYP03b, recovery of herbicide in reference to control, UPLC-MS/MS
Excerpt: (§1) The cDNA of CYP450 monooxygenase genes were synthesized with an optimized codon usage for yeast, cloned via uniqueBamHI-SalI restriction sites in the low copy pESC-ura expression vector (Agilent Technologies). Constructs were transformed into S. cerevisiae wild type strain BJ5459 (MATa ura3-5 trp lys2-801 leu2Δ1 his3Δ200 pep4Δ::HIS3 prb1Δ1.6R can1 GAL cir^+; ATCC 208284) using a Yeast Maker Transformation System from Clontech and verified by colony PCR. Positive clones were selected on minimal synthetic-defined media (SD) supplemented with appropriate dropout solution. The strain had no obvious phenotypes. Cells were induced in SG-Ura medium (same composition as SD but with galactose instead of glucose) for 24 h (Pompon et al., Methods in Enzymology 272:51-64 (1996); Urban et al., Eur. J. Biochem. 222:[…] (1994)). Optimal heterologous protein expression was assayed using Western Blot analysis.
(§2) 96 deep well growth plates (STARLAB GmbH) charged with 700 μL SDA medium are inoculated with the respective yeast strains from cryostock and incubated at 30° C., 400 rpm. After 48 h, an aliquot is transferred into a new plate with fresh SDA medium 400 rpm. After 4 h the cultures are spun down, the supernatant discarded and the pellets resuspended in 700 μL pre-warmed SGA media to induce protein expression at 30° C. and 400 rpm. After an incubation time of 24 h, 7 μL herbicide solution (500 μM DMSO stock solution) or solvent control is added to the yeast culture incubated for additional 24 h. The herbicide conversion is stopped by adding 700 μL acetonitrile followed by ultrasonification. The homogenate is prepared for UPLC-MS/MS analysis. The degradation rate was calculated by the determination of the recovery of the herbicide in reference to the control.

AmCYP01 (Seq ID 2) = test: Herbicide degradation in transgenic yeast cells expressing cytochrome P450 AmCYP01; type: in vitro ADME, Alopecurus myosuroides; settings: transgenic yeast cells (S. cerevisiae BJ5459) expressing AmCYP01, Seq ID 2, recovery of herbicide in reference to control, UPLC-MS/MS
Excerpt: as §1, §2

[1] = system: transgenic plants expressing Am_CYP04 (SEQ ID 27); test: Greenhouse herbicide tolerance of transgenic plants expressing Am_CYP04 (FIG. 2); type: in vivo, Arabidopsis thaliana; settings: plants expressing Am_CYP04 (SEQ ID 27) vs wildtype, different application rates (g/ha)
Description: (§3) Transgenic Arabidopsis thaliana plants were assayed for improved tolerance to saflufenacil, 1,5-dimethyl-6-thioxo-3-(2,2,7-trifluoro-3-oxo-4-(prop-2-ynyl)-3,4-dihydro-2H-benzo[b][1,4]oxazin-6-yl)-1,3,5-triazinane-2,4-dione (CAS 1258836-72-4), chlorotoluron, pendimethalin, flumioxazin, butafenacil, acifluorfen, lactofen, bifenox, diuron, sulfentrazon, tepraloxydim, coumarone-derivative herbicides, azine-derivative herbicides in 48-well plates. Therefore, T2 seeds are surface sterilized by stirring for 5 min in ethanol+water (70+30 by volume), rinsing one time with ethanol+water (70+30 by volume) and two times with sterile, deionized water. The seeds are resuspended in 0.1% agar dissolved in water (w/v) Four to five seeds per well are plated on solid nutrient medium consisting of half-strength murashige skoog nutrient solution, pH 5.8 (Murashige and Skoog (1962) Physiologia Plantarum 15: 473-497). Compounds are dissolved in dimethylsulfoxid (DMSO) and added to the medium prior solidification (final DMSO concentration 0.1%). Multi well plates are incubated in a growth chamber at 22° C., 75% relative humidity and 110 μmol Phot*m^2*s^−1 with 14:10 h light: dark photoperiod. Growth inhibition is evaluated seven to ten days after seeding in comparison to wild type plants. Additionally, transgenic T1 Arabidopsis plants were tested for improved tolerance to herbicides in greenhouse studies with the following herbicides: saflufenacil, 1,5-dimethyl-6-thioxo-3-(2,2,7-trifluoro-3-oxo-4-(prop-2-ynyl)-3,4-dihydro-2H-benzo[b][1,4]oxazin-6-yl)-1,3,5-triazinane-2,4-dione (CAS 1258836-72-4), chlorotoluron, pendimethalin, flumioxazin, butafenacil, acifluorfen, lactofen, bifenox, diuron, sulfentrazone, tepraloxydim, coumarone-derivative herbicides, azine-derivative herbicides.

[2] = system: transgenic plants expressing Am_CYP03 (SEQ ID 4); test: Greenhouse herbicide tolerance of transgenic plants expressing Am_CYP03 (FIG. 1); type: in vivo, Arabidopsis thaliana; settings: plants expressing Am_CYP03 (SEQ ID 4) vs wildtype, different application rates (g/ha)
Description: as §3

AmCYP12_1 (Seq ID 45) = test: Herbicide degradation in transgenic yeast cells expressing cytochrome P450 AmCYP12_1; type: in vitro ADME, Alopecurus myosuroides; settings: transgenic yeast cells (S. cerevisiae BJ5459) expressing AmCYP12_1, Seq ID 45, recovery of herbicide in reference to control, UPLC-MS/MS
Excerpt: as §1, §2

AmCYP03_1 (Seq ID 4) = test: Herbicide degradation in transgenic yeast cells expressing cytochrome P450 AmCYP03_1; type: in vitro ADME, Alopecurus myosuroides; settings: transgenic yeast cells (S. cerevisiae BJ5459) expressing AmCYP03_1, Seq ID 4, recovery of herbicide in reference to control, UPLC-MS/MS
Excerpt: as §1, §2

AmCYP04 (Seq ID 27) = test: Herbicide degradation in transgenic yeast cells expressing cytochrome P450 AmCYP04; type: in vitro ADME, Alopecurus myosuroides; settings: transgenic yeast cells (S. cerevisiae BJ5459) expressing AmCYP04, Seq ID 27, recovery of herbicide in reference to control, UPLC-MS/MS
Excerpt: as §1, §2

Cc1ccc(NC(=O)N(C)C)cc1Cl [Chlorotoluron, reference compound]
Degradation rate of listed herbicidal compounds within 24 h (AmCYP03b (Seq ID 6)): 29
Degradation rate of listed herbicidal compounds within 24 h (AmCYP01 (Seq ID 2)): 18
Phenotype (injury) of transgenic plants compared to non-transgenic plants [1]: much less injured
Phenotype (injury) of transgenic plants compared to non-transgenic plants [2]: much less injured
Degradation rate of listed herbicidal compounds within 24 h (AmCYP12_1 (Seq ID 45)): 22
Degradation rate of listed herbicidal compounds within 24 h (AmCYP03_1 (Seq ID 4)): 32
Degradation rate of listed herbicidal compounds within 24 h (AmCYP04 (Seq ID 27)): 26

CC(C)N(C)S(=O)(=O)NC(=O)c1cc(-n2c(=O)cc(C(F)(F)F)n(C)c2=O)c(F)cc1Cl [saflufenacil, reference compound]
Degradation rate of listed herbicidal compounds within 24 h (AmCYP03b (Seq ID 6)): 9
Degradation rate of listed herbicidal compounds within 24 h (AmCYP01 (Seq ID 2)): 20
Phenotype (injury) of transgenic plants compared to non-transgenic plants [1]: much less injured
Phenotype (injury) of transgenic plants compared to non-transgenic plants [2]: much less injured
Degradation rate of listed herbicidal compounds within 24 h (AmCYP12_1 (Seq ID 45)): 20
Degradation rate of listed herbicidal compounds within 24 h (AmCYP03_1 (Seq ID 4)): 10
Degradation rate of listed herbicidal compounds within 24 h (AmCYP04 (Seq ID 27)): 18
